# In ChEMBL document CHEMBL1148480, “Structure-activity studies of orexin a and orexin B at the human orexin 1 and orexin 2 receptors led to orexin 2 receptor selective and orexin 1 receptor preferring ligands” (J Med Chem, 2004):
# Residues, ends and D or L forms follow the SMILES beside them.
# Target: T1, Orexin/Hypocretin receptor type 1 (Homo sapiens, UniProt O43613)
# T1 sequence (O43613 whole entry): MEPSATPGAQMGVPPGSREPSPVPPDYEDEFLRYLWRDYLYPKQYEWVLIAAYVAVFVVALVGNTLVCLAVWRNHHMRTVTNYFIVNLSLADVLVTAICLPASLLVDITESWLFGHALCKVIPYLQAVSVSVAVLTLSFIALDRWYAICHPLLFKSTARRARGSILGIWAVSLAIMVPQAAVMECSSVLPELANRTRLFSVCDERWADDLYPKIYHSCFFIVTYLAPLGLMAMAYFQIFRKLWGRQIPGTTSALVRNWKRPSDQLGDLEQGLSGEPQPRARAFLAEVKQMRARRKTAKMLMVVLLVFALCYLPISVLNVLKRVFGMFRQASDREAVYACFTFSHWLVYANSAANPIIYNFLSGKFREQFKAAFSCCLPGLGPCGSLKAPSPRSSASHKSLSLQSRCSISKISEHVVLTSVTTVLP
# Assay: Effective agonist concentration to human orexin receptor type 1 determined using the Xlfit program
# Assay type: functional
row,SMILES,EC50 [nM]
1,CC[C@H](C)[C@H](NC(=O)CNC(=O)[C@H](C)NC(=O)[C@H](C)NC(=O)[C@H](Cc1cnc[nH]1)NC(=O)[C@H](CC(N)=O)NC(=O)CNC(=O)[C@H](C)NC(=O)CNC(=O)[C@H](Cc1cnc[nH]1)NC(=O)[C@H](CC(C)C)NC(=O)[C@H](CC(C)C)NC(=O)[C@H](CCC(=O)O)NC(=O)[C@H](Cc1ccc(O)cc1)NC(=O)[C@H](CC(C)C)NC(=O)[C@H](CCCNC(=N)N)NC(=O)[C@H](CS)NC(=O)[C@H](CO)NC(=O)[C@H](CS)NC(=O)[C@@H](NC(=O)[C@H](CCCCN)NC(=O)[C@H](CCC(N)=O)NC(=O)[C@H](CCCNC(=N)N)NC(=O)[C@H](CS)NC(=O)[C@H](CS)NC(=O)[C@H](CC(=O)O)NC(=O)[C@@H]1CCCN1C(=O)[C@H](CC(C)C)NC(=O)[C@@H]1CCCN1C(=O)[C@@H]1CCC(=O)N1)[C@@H](C)O)C(=O)N[C@@H](CC(C)C)C(=O)N[C@H](C(=O)N[C@@H](CC(C)C)C(=O)O)[C@@H](C)O,160
2,CC[C@H](C)[C@H](NC(=O)CNC(=O)[C@H](C)NC(=O)[C@H](C)NC(=O)[C@H](Cc1c[nH]cn1)NC(=O)[C@H](CC(N)=O)NC(=O)CNC(=O)[C@H](C)NC(=O)CNC(=O)[C@H](Cc1c[nH]cn1)NC(=O)[C@H](CC(C)C)NC(=O)[C@H](CC(C)C)NC(=O)[C@H](CCC(=O)O)NC(=O)[C@H](Cc1ccc(O)cc1)NC(=O)[C@H](CC(C)C)NC(=O)[C@H](CCCN=C(N)N)NC(=O)[C@H](CS)NC(=O)[C@H](CO)NC(=O)[C@H](CS)NC(=O)[C@@H](NC(=O)[C@H](CCCCN)NC(=O)[C@H](CCC(N)=O)NC(=O)[C@H](CCCN=C(N)N)NC(=O)[C@H](CS)NC(=O)[C@@H](N)CS)[C@@H](C)O)C(=O)N[C@@H](CC(C)C)C(=O)N[C@H](C(=O)N[C@@H](CC(C)C)C(N)=O)[C@@H](C)O (H-CCRQKTCSCRLYELLHGAGNHAAGILTL-NH2),810
3,CC[C@H](C)[C@H](NC(=O)CNC(=O)[C@H](C)NC(=O)[C@H](C)NC(=O)[C@H](Cc1c[nH]cn1)NC(=O)[C@H](CC(N)=O)NC(=O)CNC(=O)[C@H](CO)NC(=O)[C@H](C)NC(=O)[C@H](CCC(N)=O)NC(=O)[C@H](CC(C)C)NC(=O)[C@H](CC(C)C)NC(=O)[C@H](CCCN=C(N)N)NC(=O)[C@H](CCC(N)=O)NC(=O)[C@H](CC(C)C)NC(=O)[C@H](CCCN=C(N)N)NC(=O)CNC(=O)[C@H](CCC(N)=O)NC(=O)[C@H](C)NC(=O)CN)C(=O)N[C@@H](CC(C)C)C(=O)N[C@H](C(=O)N[C@@H](CCSC)C(N)=O)[C@@H](C)O (H-GAQGRLQRLLQASGNHAAGILTM-NH2),7410
4,CC[C@H](C)[C@H](NC(=O)CNC(=O)[C@H](C)NC(=O)[C@H](C)NC(=O)[C@H](Cc1cnc[nH]1)NC(=O)[C@H](CC(N)=O)NC(=O)CNC(=O)[C@H](CO)NC(=O)[C@H](C)NC(=O)[C@H](CCC(N)=O)NC(=O)[C@H](CC(C)C)NC(=O)[C@H](CC(C)C)NC(=O)[C@H](CCCNC(=N)N)NC(=O)[C@H](CCC(N)=O)NC(=O)[C@H](CC(C)C)NC(=O)[C@H](CCCNC(=N)N)NC(=O)CNC(=O)[C@H](C)NC(=O)[C@H](CC(C)C)NC(=O)CN)C(=O)N[C@@H](CC(C)C)C(=O)N[C@H](C(=O)N[C@@H](CCSC)C(N)=O)[C@@H](C)O (H-GLAGRLQRLLQASGNHAAGILTM-NH2),1640
5,CC[C@H](C)[C@H](NC(=O)CNC(=O)[C@H](C)NC(=O)[C@H](C)NC(=O)[C@H](Cc1c[nH]cn1)NC(=O)[C@H](CC(N)=O)NC(=O)CNC(=O)[C@H](CO)NC(=O)[C@H](C)NC(=O)[C@H](CCC(N)=O)NC(=O)[C@H](CC(C)C)NC(=O)[C@H](CC(C)C)NC(=O)[C@H](CCCN=C(N)N)NC(=O)[C@H](CCC(N)=O)NC(=O)[C@H](CC(C)C)NC(=O)[C@H](CCCN=C(N)N)NC(=O)CNC(=O)[C@@H]1CCCN1C(=O)[C@H](CC(C)C)NC(=O)CN)C(=O)N[C@@H](CC(C)C)C(=O)N[C@H](C(=O)N[C@@H](CCSC)C(N)=O)[C@@H](C)O (H-GLPGRLQRLLQASGNHAAGILTM-NH2),1200
6,CC[C@H](C)[C@H](NC(=O)CNC(=O)[C@H](C)NC(=O)[C@H](C)NC(=O)[C@H](Cc1c[nH]cn1)NC(=O)[C@H](CC(N)=O)NC(=O)CNC(=O)[C@H](CO)NC(=O)[C@H](C)NC(=O)[C@H](CCC(N)=O)NC(=O)[C@H](CC(C)C)NC(=O)[C@H](CC(C)C)NC(=O)[C@H](CCCN=C(N)N)NC(=O)[C@H](CCC(N)=O)NC(=O)[C@H](CC(C)C)NC(=O)[C@H](CCCN=C(N)N)NC(=O)[C@H](C)NC(=O)[C@H](CCC(N)=O)NC(=O)[C@H](CC(C)C)NC(=O)CN)C(=O)N[C@@H](CC(C)C)C(=O)N[C@H](C(=O)N[C@@H](CCSC)C(N)=O)[C@@H](C)O (H-GLQARLQRLLQASGNHAAGILTM-NH2),2300
7,CC[C@H](C)[C@H](NC(=O)CNC(=O)[C@H](C)NC(=O)[C@H](C)NC(=O)[C@H](Cc1c[nH]cn1)NC(=O)[C@H](CC(N)=O)NC(=O)CNC(=O)[C@H](CO)NC(=O)[C@H](C)NC(=O)[C@H](CCC(N)=O)NC(=O)[C@H](CC(C)C)NC(=O)[C@H](CC(C)C)NC(=O)[C@H](CCCN=C(N)N)NC(=O)[C@H](CCC(N)=O)NC(=O)[C@H](CC(C)C)NC(=O)[C@H](C)NC(=O)CNC(=O)[C@H](CCC(N)=O)NC(=O)[C@H](CC(C)C)NC(=O)CN)C(=O)N[C@@H](CC(C)C)C(=O)N[C@H](C(=O)N[C@@H](CCSC)C(=O)O)[C@@H](C)O (H-GLQGALQRLLQASGNHAAGILTM-OH),6950
8,CC[C@H](C)[C@H](NC(=O)CNC(=O)[C@H](C)NC(=O)[C@H](C)NC(=O)[C@H](Cc1c[nH]cn1)NC(=O)[C@H](CC(N)=O)NC(=O)CNC(=O)[C@H](CO)NC(=O)[C@H](C)NC(=O)[C@H](CCC(N)=O)NC(=O)[C@H](CC(C)C)NC(=O)[C@H](CC(C)C)NC(=O)[C@H](CCCNC(=N)N)NC(=O)[C@H](CCC(N)=O)NC(=O)[C@H](C)NC(=O)[C@H](CCCNC(=N)N)NC(=O)CNC(=O)[C@H](CCC(N)=O)NC(=O)[C@H](CC(C)C)NC(=O)CN)C(=O)N[C@@H](CC(C)C)C(=O)N[C@H](C(=O)N[C@@H](CCSC)C(=O)O)[C@@H](C)O (H-GLQGRAQRLLQASGNHAAGILTM-OH),11400
9,CC[C@H](C)[C@H](NC(=O)CNC(=O)[C@H](C)NC(=O)[C@H](C)NC(=O)[C@H](Cc1c[nH]cn1)NC(=O)[C@H](CC(N)=O)NC(=O)CNC(=O)[C@H](CO)NC(=O)[C@H](C)NC(=O)[C@H](CCC(N)=O)NC(=O)[C@H](CC(C)C)NC(=O)[C@H](CC(C)C)NC(=O)[C@H](CCCNC(=N)N)NC(=O)[C@H](C)NC(=O)[C@H](CC(C)C)NC(=O)[C@H](CCCNC(=N)N)NC(=O)CNC(=O)[C@H](CCC(N)=O)NC(=O)[C@H](CC(C)C)NC(=O)CN)C(=O)N[C@@H](CC(C)C)C(=O)N[C@H](C(=O)N[C@@H](CCSC)C(=O)O)[C@@H](C)O (H-GLQGRLARLLQASGNHAAGILTM-OH),1300
10,CC[C@H](C)[C@H](NC(=O)CNC(=O)[C@H](C)NC(=O)[C@H](C)NC(=O)[C@H](Cc1cnc[nH]1)NC(=O)[C@H](CC(N)=O)NC(=O)CNC(=O)[C@H](CO)NC(=O)[C@H](C)NC(=O)[C@H](CCC(N)=O)NC(=O)[C@H](CC(C)C)NC(=O)[C@H](CC(C)C)NC(=O)[C@H](C)NC(=O)[C@H](CCC(N)=O)NC(=O)[C@H](CC(C)C)NC(=O)[C@H](CCCNC(=N)N)NC(=O)CNC(=O)[C@H](CCC(N)=O)NC(=O)[C@H](CC(C)C)NC(=O)CN)C(=O)N[C@@H](CC(C)C)C(=O)N[C@H](C(=O)N[C@@H](CCSC)C(=O)O)[C@@H](C)O (H-GLQGRLQALLQASGNHAAGILTM-OH),4340
11,CC[C@H](C)[C@H](NC(=O)CNC(=O)[C@H](C)NC(=O)[C@H](C)NC(=O)[C@H](Cc1cnc[nH]1)NC(=O)[C@H](CC(N)=O)NC(=O)CNC(=O)[C@H](CO)NC(=O)[C@H](C)NC(=O)[C@H](CCC(N)=O)NC(=O)[C@H](CC(C)C)NC(=O)[C@H](CC(C)C)NC(=O)[C@@H]1CCCN1C(=O)[C@H](CCC(N)=O)NC(=O)[C@H](CC(C)C)NC(=O)[C@H](CCCNC(=N)N)NC(=O)CNC(=O)[C@H](CCC(N)=O)NC(=O)[C@H](CC(C)C)NC(=O)CN)C(=O)N[C@@H](CC(C)C)C(=O)N[C@H](C(=O)N[C@@H](CCSC)C(N)=O)[C@@H](C)O (H-GLQGRLQPLLQASGNHAAGILTM-NH2),17800
12,CC[C@H](C)[C@H](NC(=O)CNC(=O)[C@H](C)NC(=O)[C@H](C)NC(=O)[C@H](Cc1c[nH]cn1)NC(=O)[C@H](CC(N)=O)NC(=O)CNC(=O)[C@H](C)NC(=O)[C@H](C)NC(=O)[C@H](CCC(N)=O)NC(=O)[C@H](CC(C)C)NC(=O)[C@H](CC(C)C)NC(=O)[C@H](CCCN=C(N)N)NC(=O)[C@H](CCC(N)=O)NC(=O)[C@H](CC(C)C)NC(=O)[C@H](CCCN=C(N)N)NC(=O)CNC(=O)[C@H](CCC(N)=O)NC(=O)[C@H](CC(C)C)NC(=O)CN)C(=O)N[C@@H](CC(C)C)C(=O)N[C@H](C(=O)N[C@@H](CCSC)C(=O)O)[C@@H](C)O (H-GLQGRLQRLLQAAGNHAAGILTM-OH),1460
13,CC[C@H](C)[C@H](NC(=O)CNC(=O)[C@H](C)NC(=O)[C@H](C)NC(=O)[C@H](Cc1c[nH]cn1)NC(=O)[C@H](CC(N)=O)NC(=O)[C@H](C)NC(=O)[C@H](CO)NC(=O)[C@H](C)NC(=O)[C@H](CCC(N)=O)NC(=O)[C@H](CC(C)C)NC(=O)[C@H](CC(C)C)NC(=O)[C@H](CCCN=C(N)N)NC(=O)[C@H](CCC(N)=O)NC(=O)[C@H](CC(C)C)NC(=O)[C@H](CCCN=C(N)N)NC(=O)CNC(=O)[C@H](CCC(N)=O)NC(=O)[C@H](CC(C)C)NC(=O)CN)C(=O)N[C@@H](CC(C)C)C(=O)N[C@H](C(=O)N[C@@H](CCSC)C(=O)O)[C@@H](C)O (H-GLQGRLQRLLQASANHAAGILTM-OH),2210
